Assay results published in US10144706B2 (BRISTOL-MYERS SQUIBB COMPANY, priority 2016, dated 2018).

Biological target: T1, PD-1/PD-L1 interaction (PD-1-Ig / PD-L1-His) (Homo sapiens, UniProt Q9NZQ7)
T1 construct: hPDL1(18-239)-TVMV-His; TVMV protease site linker (C); made in house; host or cells: HEK293T
Assay: PD-1/PD-L1 Homogenous Time-Resolved Fluorescence (HTRF) binding assay
Details: IC50 range class; PD-L1-His 10 nM, PD-1-Ig 20 nM; read-out: Range or IC50
How it was run: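 HTRF detection used 1 nM europium-cryptate anti-Ig and 20 nM APC anti-His. Compounds first saw 10 nM PD-L1-His for 15 min, and 20 nM PD-1-Ig was then added for another 15 min. Buffer was dPBS plus 0.1% BSA and 0.05% Tween-20. All concentrations are final.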

T1 sequence (Q9NZQ7 with tags, fused parts or gaps): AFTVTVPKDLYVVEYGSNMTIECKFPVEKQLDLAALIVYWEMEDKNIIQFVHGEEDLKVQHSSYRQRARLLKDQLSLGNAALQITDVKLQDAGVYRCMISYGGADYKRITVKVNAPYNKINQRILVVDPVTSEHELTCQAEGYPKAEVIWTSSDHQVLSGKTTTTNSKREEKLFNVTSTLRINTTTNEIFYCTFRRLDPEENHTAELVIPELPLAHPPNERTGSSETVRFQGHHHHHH

First: COc1cc(OCc2cccc(-c3cccc(COc4cc(OC)c(CN(C)Cc5cncs5)cc4Cl)c3C)c2C)c(Cl)cc1CN(C)Cc1cncs1 [Example 5039, 1,1′-((((2,2′-dimethyl-[1,1′-biphenyl]-3,3′-diyl)bis(methylene))bis(oxy))bis(5-chloro-2-methoxy-4,1-phenylene))bis(N-methyl-N-(thiazol-5-ylmethyl)methanamine)]
Second: COc1cc(OCc2cccc(-c3cccc(COc4cc(OC)c(CNC(CO)CO)cc4Cl)c3C)c2C)c(Cl)cc1CNC(CO)CO [Example 2122, 2,2′-((((((2,2′-dimethyl-[1,1′-biphenyl]-3,3′-diyl)bis(methylene))bis(oxy))bis(5-chloro-2-methoxy-4,1-phenylene))bis(methylene))bis(azanediyl))bis(propane-1,3-diol)]
The IC50 of the first is higher: 90.1 to 1000 nM for the first, 0.04 to 20 nM for the second.

`Cc1c(OCCCN(C)CCCN(C)CCCOc2cccc(-c3cccc(OCCCN4CC[C@@H](O)C4)c3C)c2C)cccc1-c1cccc(OCCCN2CC[C@@H](O)C2)c1C` [Example 2093, (3R,3′R)-1,1′-((((((propane-1,3-diylbis(methylazanediyl))bis(propane-3,1-diyl))bis(oxy))bis(2,2′-dimethyl-[1,1′-biphenyl]-3′,3-diyl))bis(oxy))bis(propane-3,1-diyl))bis(pyrrolidin-3-ol)] and `CNCCOCCN(C)CCCOc1cccc(-c2cccc(OCCCN3CC[C@@H](O)C3)c2C)c1C` [Example 2096, (R)-1-(3-((2,2′-dimethyl-3′-(3-(methyl(2-(2-(methylamino)ethoxy)ethyl)amino)propoxy)-[1,1′-biphenyl]-3-yl)oxy)propyl)pyrrolidin-3-ol] fall in the same range of IC50: 20.1 to 90 nM for the first, 20.1 to 90 nM for the second.

Compared with `Cc1c(OCCCN2CC[C@@H](O)C2)cccc1-c1cccc(S(=O)(=O)NCCC(=O)O)c1C` [Example 3020, (R)-3-(3′-(3-(3-hydroxypyrrolidin-1-yl)propoxy)-2,2′-dimethyl-[1,1′-biphenyl]-3-ylsulfonamido)propanoic acid], `Cc1c(OCCCNCCN(C)C)cccc1-c1cccc(OCCCN2CC[C@@H](O)C2)c1C` [Example 2007, (R)-1-(3-((3′-(3-((2-(dimethylamino)ethyl)amino)propoxy)-2,2′-dimethyl-[1,1′-biphenyl]-3-yl)oxy)propyl)pyrrolidin-3-ol] is lower in IC50: 1000 to 10000 nM for the first, 90.1 to 1000 nM for the second. The second is the more potent here.

`NCCCOc1cccc(-c2cccc(OCCCN)c2Cl)c1Cl` [Example 2134, 3,3′-((2,2′-dichloro-[1,1′-biphenyl]-3,3′-diyl)bis(oxy))bis(propan-1-amine)] and `Cc1c(OCCCNCCn2cccn2)cccc1-c1cccc(OCCCN2CC[C@@H](O)C2)c1C` [Example 2008, (R)-1-(3-((3′-(3-((2-(1H-pyrazol-1-yl)ethyl)amino)propoxy)-2,2′-dimethyl-[1,1′-biphenyl]-3-yl)oxy)propyl)pyrrolidin-3-ol] fall in the same range of IC50: 90.1 to 1000 nM for the first, 90.1 to 1000 nM for the second.

First: Cc1c(COc2cc(OCc3cncc(C#N)c3)c(CO)cc2Cl)cccc1-c1cccc(COc2cc(OCc3cncc(C#N)c3)c(CN[C@H](CO)C(=O)O)cc2Cl)c1C [Example 50240]
Second: Cc1c(COc2cc(OCc3cncc(C#N)c3)c(CO)cc2Cl)cccc1-c1cccc(COc2cc(OCc3cncc(C#N)c3)c(CN[C@@H](CO)CC(=O)O)cc2Cl)c1C [Example 50310]
The IC50 of the first is lower: 0.04 to 20 nM for the first, 20.1 to 90 nM for the second. The first is the more potent here.

`Cc1c(COc2cc(OCc3cncc(C#N)c3)c(CO)cc2Cl)cccc1-c1cccc(COc2cc(OCc3cncc(C#N)c3)c(CN3CCC[C@H](C(=O)O)C3)cc2Cl)c1C` [Example 50120] and `Cc1c(COc2cc(OCc3cncc(C#N)c3)c(CN3CCCC(C(=O)O)C3)cc2Cl)cccc1-c1cccc(COc2cc(OCc3cncc(C#N)c3)c(CN3CCCC(C(=O)O)C3)cc2Cl)c1C` (stereo not drawn) [Example 40380] fall in the same range of IC50: 0.04 to 20 nM for the first, 0.04 to 20 nM for the second.

First: Cc1c(OCCCNCCc2cccnc2)cccc1-c1cccc(OCCCN2CC[C@@H](O)C2)c1C [Example 2022, (R)-1-(3-((2,2′-dimethyl-3′-(3-((2-(pyridin-3-yl)ethyl)amino)propoxy)-[1,1′-biphenyl]-3-yl)oxy)propyl)pyrrolidin-3-ol]
Second: Cc1c(OCCCN[C@@H](Cc2ccccn2)C(=O)O)cccc1-c1cccc(OCCCN2CC[C@@H](O)C2)c1C [Example 2116, (S)-2-((3-((3′-(3-((R)-3-hydroxypyrrolidin-1-yl)propoxy)-2,2′-dimethyl-[1,1′-biphenyl]-3-yl)oxy)propyl)amino)-3-(pyridin-2-yl)propanoic acid]
The IC50 of the first is lower: 0.04 to 20 nM for the first, 90.1 to 1000 nM for the second.

Compared with `Cc1c(COc2cc(OCc3cncc(C#N)c3)c(CN3CC[C@@H](O)C3)cc2Cl)cccc1-c1cccc(COc2cc(OCc3cncc(C#N)c3)c(CN3CC[C@@H](O)C3)cc2Cl)c1C` [Example 2125, 5,5′-((((((2,2′-dimethyl-[1,1′-biphenyl]-3,3′-diyl)bis(methylene))bis(oxy))bis(4-chloro-6-(((R)-3-hydroxypyrrolidin-1-yl)methyl)-3,1-phenylene))bis(oxy))bis(methylene))dinicotinonitrile], `Cc1c(COc2cc(OCc3cncc(C#N)c3)c(CN3C(=O)OCC3CO)cc2Cl)cccc1-c1cccc(COc2cc(OCc3cncc(C#N)c3)c(CN3C(=O)OCC3CO)cc2Cl)c1C` (stereo not drawn) [Example 2133, 5,5′-((((((2,2′-dimethyl-[1,1′-biphenyl]-3,3′-diyl)bis(methylene))bis(oxy))bis(4-chloro-6-((4-(hydroxymethyl)-2-oxooxazolidin-3-yl)methyl)-3,1-phenylene))bis(oxy))bis(methylene))dinicotinonitrile] is higher in IC50: 0.04 to 20 nM for the first, 90.1 to 1000 nM for the second.

`Cc1c(COc2cc(OCc3ccc(-n4cccn4)nc3)c(CN[C@H](C(=O)O)[C@@H](C)O)cc2Cl)cccc1-c1cccc(COc2cc(OCc3ccc(-n4cccn4)nc3)c(CN[C@H](C(=O)O)[C@@H](C)O)cc2Cl)c1C` [Example 5018, (2S,2′S,3R,3′R)-2,2′-((((((2,2′-dimethyl-[1,1′-biphenyl]-3,3′-diyl)bis(methylene))bis(oxy))bis(2-((6-(1H-pyrazol-1-yl)pyridin-3-yl)methoxy)-5-chloro-4,1-phenylene))bis(methylene))bis(azanediyl))bis(3-hydroxybutanoic acid)] and `CO[C@H](C)[C@H](NCc1cc(Cl)c(OCc2cccc(-c3cccc(COc4cc(OCc5cncc(C#N)c5)c(CN[C@H](C(=O)O)[C@@H](C)OC)cc4Cl)c3C)c2C)cc1OCc1cncc(C#N)c1)C(=O)O` [Example 40940] fall in the same range of IC50: 0.04 to 20 nM for the first, 0.04 to 20 nM for the second.

Compared with `Cc1c(COc2cc(OCc3cncc(C#N)c3)c(CN[C@@H](C(=O)O)[C@H](C)OCc3ccccc3)cc2Cl)cccc1-c1cccc(COc2cc(OCc3cncc(C#N)c3)c(CN[C@@H](C(=O)O)[C@H](C)OCc3ccccc3)cc2Cl)c1C` [Example 40960], `Cc1c(COc2cc(OCc3cncc(C#N)c3)c(CN[C@H](CCO)C(=O)O)cc2Cl)cccc1-c1cccc(COc2cc(OCc3cncc(C#N)c3)c(CN[C@H](CCO)C(=O)O)cc2Cl)c1C` [Example 41090] is lower in IC50: 20.1 to 90 nM for the first, 0.04 to 20 nM for the second.

Compared with `N#Cc1cncc(COc2cc(OCc3cccc(-c4cccc(COc5cc(OCc6cncc(C#N)c6)c(C(=O)N6CCCC(O)C6)cc5Cl)c4Cl)c3Cl)c(Cl)cc2C(=O)N2CCCC(O)C2)c1` (stereo not drawn) [Example 80040], `N#Cc1cncc(COc2cc(OCc3cccc(-c4cccc(COc5cc(OCc6cncc(C#N)c6)c(C(=O)NCCO)cc5Cl)c4Cl)c3Cl)c(Cl)cc2C(=O)O)c1` [Example 90010] is lower in IC50: 20.1 to 90 nM for the first, 0.04 to 20 nM for the second.

`C[C@@](CO)(NCc1cc(Cl)c(OCc2cccc(-c3cccc(COc4cc(OCc5cncc(C#N)c5)c(CN[C@@](C)(CO)C(=O)O)cc4Cl)c3Cl)c2Cl)cc1OCc1cncc(C#N)c1)C(=O)O` [Example 40140] and `Cc1c(COc2cc(OCc3cncc(C#N)c3)c(CN[C@@](C)(CO)C(=O)O)cc2Cl)cccc1-c1cccc(COc2cc(OCc3cncc(C#N)c3)c(CN[C@@](C)(CO)C(=O)O)cc2Cl)c1C` [Example 2123, (2S,2′S)-2,2′-((((((2,2′-dimethyl-[1,1′-biphenyl]-3,3′-diyl)bis(methylene))bis(oxy))bis(5-chloro-2-((5-cyanopyridin-3-yl)methoxy)-4,1-phenylene))bis(methylene))bis(azanediyl))bis(3-hydroxy-2-methylpropanoic acid)] fall in the same range of IC50: 0.04 to 20 nM for the first, 0.04 to 20 nM for the second.

`Cc1c(COc2cc(OCc3cncc(C#N)c3)c(CN(Cc3cncs3)C(CCO)C(=O)O)cc2Cl)cccc1-c1cccc(COc2cc(OCc3cncc(C#N)c3)c(CN(Cc3cncs3)C(CCO)C(=O)O)cc2Cl)c1C` (stereo not drawn) [Example 40990] and `COC(=O)CC(O)CNCc1cc(Cl)c(OCc2cccc(-c3cccc(COc4cc(OCc5cncc(C#N)c5)c(CNCC(O)CC(=O)OC)cc4Cl)c3C)c2C)cc1OCc1cncc(C#N)c1` (stereo not drawn) [Example 40710] fall in the same range of IC50: 0.04 to 20 nM for the first, 0.04 to 20 nM for the second.

First: Cc1c(OCCCNC2C[C@H](CO)[C@@H](O)[C@H]2O)cccc1-c1cccc(OCCCN[C@@H]2C[C@H](CO)[C@@H](O)[C@H]2O)c1C (stereo partly drawn) [Example 2132, (1R,2S,5R)-3-((3-((3′-(3-(((1R,2S,3R,4R)-2,3-dihydroxy-4-(hydroxymethyl)cyclopentyl)amino)propoxy)-2,2′-dimethyl-[1,1′-biphenyl]-3-yl)oxy)propyl)amino)-5-(hydroxymethyl)cyclopentane-1,2-diol]
Second: N#Cc1cncc(COc2cc(OCc3cccc(-c4cccc(COc5cc(OCc6cncc(C#N)c6)c(C(=O)NC6COC6)cc5Cl)c4Cl)c3Cl)c(Cl)cc2C(=O)NC2COC2)c1 [Example 80180]
The IC50 of the first is lower: 0.04 to 20 nM for the first, 1000 to 10000 nM for the second.

Same assay, conditions: numeric IC50; PD-L1-His 10 nM, PD-1-Ig 20 nM; read-out: Range or IC50

First: CC(=O)N[C@@H]1CCN(CCCOc2cccc(-c3cccc(OCCCN4CC[C@@H](O)C4)c3C)c2C)C1 [Example 2018, N—((R)-1-(3-((3′-(3-((R)-3-hydroxypyrrolidin-1-yl)propoxy)-2,2′-dimethyl-[1,1′-biphenyl]-3-yl)oxy)propyl)pyrrolidin-3-yl)acetamide]
Second: Cc1c(OCCCN2CC[C@@H](O)C2)cccc1-c1cccc(OCCCN2CC[C@@H](O)C2)c1Cl [Example 3024, (3R,3′R)-1,1′-(((2-chloro-2′-methyl-[1,1′-biphenyl]-3,3′-diyl)bis(oxy))bis(propane-3,1-diyl))bis(pyrrolidin-3-ol)]
The IC50 of the first is 5.8-fold higher: 69 nM for the first, 12 nM for the second. The second is the more potent here.
